Data from patent US12410160B2 (Gilead Sciences, Inc., priority 2021, dated 2025).

What was measured:
human KHK-C = human KHK-C (Homo sapiens (Human), UniProt P50053); assay: KHK Biochemical Assay (IC50), ADP-Glo, KHK-C; conditions: average of at least two separate assays
Method: (§1) The His-tagged fusion protein was expressed using BL21 (DE3) with IPTG induction and purified using Ni-NTA column followed by dialysis into final buffer containing 25 mM Tris-HCl pH 8.0, 250 mM NaCl.
(§2) KHK Biochemical Assay (IC50)
(§3) Compounds were tested for KHK enzyme inhibition in a high-throughput 384-well assay format using the ADP-Glo assay (Promega) in buffer consisting of 50 mM Hepes (pH 7.4), 140 mM KCl, 5 mM MgCl2 and 0.01% Triton-X. 0.2 nM. […] Compounds were serially diluted (1:3) in DMSO.
(§4) The compounds were pre-incubated with 5 μL of 2× final enzyme concentration for 30 minutes before adding 5 μL of 2× final concentration of ATP and fructose. The plates were incubated at room temperature for 4 hours before adding ADP-Glo reagent to quench the enzyme reaction, followed by incubation at room temperature for 1 hour. The ADP-Glo detection reagent was then added to the plates and luminescence was measured on the Envision plate reader after 1 hour.

human KHK-A = human KHK-A (Homo sapiens (Human), UniProt P50053); assay: KHK Biochemical Assay (IC50), ADP-Glo, KHK-A; conditions: average of at least two separate assays
Sequence of human KHK-A (P50053 other isoform, or with tags, fused parts or gaps): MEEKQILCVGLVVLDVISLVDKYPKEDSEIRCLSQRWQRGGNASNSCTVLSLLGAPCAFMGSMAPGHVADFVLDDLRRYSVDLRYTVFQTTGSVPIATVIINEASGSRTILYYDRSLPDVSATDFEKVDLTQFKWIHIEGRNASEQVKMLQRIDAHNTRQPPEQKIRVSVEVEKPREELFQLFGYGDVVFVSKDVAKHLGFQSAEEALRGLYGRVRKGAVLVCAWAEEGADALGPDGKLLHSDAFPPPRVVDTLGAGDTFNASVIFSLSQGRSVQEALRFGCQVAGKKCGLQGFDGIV
Method: as §1, §2, §3, §4

Sequence of human KHK-C (P50053 whole entry, the tested form may be a part): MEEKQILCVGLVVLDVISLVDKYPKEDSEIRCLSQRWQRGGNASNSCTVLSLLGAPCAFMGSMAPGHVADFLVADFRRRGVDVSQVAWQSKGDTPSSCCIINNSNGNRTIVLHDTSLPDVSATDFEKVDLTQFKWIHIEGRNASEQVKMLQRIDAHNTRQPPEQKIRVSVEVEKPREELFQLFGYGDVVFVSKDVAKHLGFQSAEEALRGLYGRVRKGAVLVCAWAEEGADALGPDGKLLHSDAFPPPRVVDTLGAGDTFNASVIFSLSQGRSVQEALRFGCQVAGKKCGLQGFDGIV

Row | IC50 (human KHK-C; ADP-Glo) | IC50 (human KHK-A; ADP-Glo) | IC50 (human KHK-C) | IC50 (human KHK-A) | Compound
1 | 2170 nM | 1910 nM |  |  | C[C@H]1CCN1c1nc(-c2ccccc2)c2c(n1)C1CC1C2 (mixture of isomers) [Example 332, 9-[(2S)-2-methylazetidin-1-yl]-7-phenyl-8,10-diazatricyclo[4.4.0.02,4]deca-1(10),6,8-triene]
2 | 171 nM | 42.9 nM |  |  | C[C@H]1CCN1c1nc2c(c(-c3cccc(C(=O)N[C@H]4CC[C@@H]4O)c3)n1)CCC2 (racemic) [Example 59, N-((18*,28*)-2-hydroxycyclobutyl)-3-(2-((8)-2-methylazetidin-1-yl)-6,7-dihydro-5H-cyclopenta[d]pyrimidin-4-yl)benzamide]
3 | 119 nM | 61.6 nM |  |  | C[C@H]1CCN1c1nc2c(c(-c3cccc(C(=O)N[C@H]4CC[C@H]4O)c3)n1)CCC2 (racemic) [Example 60, N-((18*,2R*)-2-hydroxycyclobutyl)-3-(2-((8)-2-methylazetidin-1-yl)-6,7-dihydro-5H-cyclopenta[d]pyrimidin-4-yl)benzamide]
4 | 4990 nM | 6960 nM |  |  | NS(=O)(=O)c1cccc(-c2nc(N3CC4CCCC43)nc3c2CCC3)c1 (racemic) [Example 79, (rac)-3-(2-(6-azabicyclo[3.2.0]heptan-6-yl)-6,7-dihydro-5H-cyclopenta[d]pyrimidin-4-yl)benzenesulfonamide]
5 | 957 nM | 865 nM |  |  | NS(=O)(=O)c1cccc(-c2nc(N3CC[C@@H]4[C@H](O)C[C@@H]43)nc3c2CCC3)c1 (racemic) [Example 80, (rac)-3-(2-((1S*,5S*,6R*)-6-hydroxy-2-azabicyclo[3.2.0]heptan-2-yl)-6,7-dihydro-5H-cyclopenta[d]pyrimidin-4-yl)benzenesulfonamide]
6 | 13.2 nM | 18.2 nM |  |  | C[C@H]1[C@H](O)CN1c1nc2c(c(-c3cccc([C@H]4C[C@@H]4C(=O)O)c3)n1)CCC2 (single isomer, unassigned) [Example 113]
7 | 46.2 nM | 51 nM |  |  | C[C@H]1[C@H](O)CN1c1nc2c(c(-c3cccc([C@@H]4C[C@H]4C(=O)O)c3)n1)CCC2 (single isomer, unassigned) [Example 114]
8 | 9700 nM | 9270 nM |  |  | C[C@H]1CCN1c1nc(-c2ccccc2)c2c(n1)[C@H]1C[C@H]1C2 (single isomer, unassigned) [Example 334]
9 |  |  | 12 nM | 26.4 nM | C[C@H]1[C@H](O)CN1c1nc(-c2ccc3c(c2)OC[C@]32COC(=O)N2)c2c(n1)C(F)(F)CC2 (single isomer, unassigned) [Example 482]
10 |  |  | 1.2 nM | 18.9 nM | C[C@H]1[C@H](O)CN1c1nc(-c2ccc3c(c2)OC[C@]32COCC(=O)N2)c2c(n1)C(F)(F)CC2 (single isomer, unassigned) [Example 498]
11 |  |  | 10.6 nM | 6.2 nM | C[C@H]1[C@H](O)CN1c1nc(-c2ccc(OC3CC3)c([S@](C)(=N)=O)c2)c2c(n1)C(F)(F)CC2 (single isomer, unassigned) [Example 543]
12 |  |  | 16.2 nM | 75.2 nM | CC1OC[C@]2(COc3cc(-c4nc(N5C[C@@H](O)[C@@H]5C)nc5c4CCC5(F)F)ccc32)NC1=O (single isomer, unassigned) [Example 560]
13 |  |  | 44.3 nM | 65 nM | C[C@H]1[C@H](O)CN1c1nc(-c2ccc3c(c2)OC[C@@]32NC(=O)OC2(C)C)c2c(n1)C(F)(F)CC2 (single isomer, unassigned) [Example 567]
14 |  |  | 0.9 nM | 10.8 nM | C[C@H]1[C@H](O)CN1c1nc(-c2ccc3c(c2)C(F)(F)C[C@@H]3NS(C)(=O)=O)c2c(n1)C(F)(F)CC2 (single isomer, unassigned) [Example 634]
15 |  |  | 0.1 nM | 2.3 nM | C[C@H]1[C@H](F)CN1c1nc(-c2ccc3c(c2)S(=O)(=O)C[C@@H]3NS(C)(=O)=O)c2c(n1)C(F)(F)CC2 (single isomer, unassigned) [Example 679]
16 | 1.3 nM | 7.8 nM |  |  | NC1(c2ccc(-c3nc(N4CC[C@@H]4C(F)F)nc4c3CCC4(F)F)cc2)CS(=O)(=O)C1 (single isomer, unassigned) [Example 800]
17 | 52.2 nM | > 100 nM |  |  | NC1(c2ccc(-c3nc(N4CC[C@H]4C(F)F)nc4c3CCC4(F)F)cc2)CS(=O)(=O)C1 (single isomer, unassigned) [Example 801]

Row | IC50 (human KHK-C; ADP-Glo) | IC50 (human KHK-A; ADP-Glo) | IC50 (human KHK-C) | IC50 (human KHK-A) | Compound
18 | 24.2 nM | > 100 nM |  |  | C[C@H]1[C@H](O)CN1c1nc(-c2cnc3c(c2)OC[C@H]3NS(C)(=O)=O)c2c(n1)C(F)(F)CC2 (single isomer, unassigned) [Example 822]
19 | 11.8 nM | > 100 nM |  |  | C[C@H]1[C@H](O)CN1c1nc(-c2ccc3c(c2)OC[C@]32NC(=O)N(C)C2=O)c2c(n1)C(F)(F)CC2 (single isomer, unassigned) [Example 827]
20 | 4 nM | 99.8 nM |  |  | COC(=O)N[C@@H]1COc2cc(-c3nc(N4C[C@@H](O)[C@@H]4C)nc4c3CCC4(F)F)cc(OC)c21 (single isomer, unassigned) [Example 833]
21 | 17.8 nM | 56.8 nM |  |  | COC(=O)N[C@H]1COc2cc(-c3nc(N4C[C@@H](O)[C@@H]4C)nc4c3CCC4(F)F)cc(OC)c21 (single isomer, unassigned) [Example 834]
22 | 689 nM | 952 nM |  |  | COC(=O)CCc1cccc(-c2nc(N3CC[C@@H]3C)nc3c2CCC3)c1 [Example 1, methyl (S)-3-(3-(2-(2-methylazetidin-1-yl)-6,7-dihydro-5H cyclopenta[d]pyrimidin-4-yl)phenyl)propanoate]
23 | 30800 nM | 31000 nM |  |  | COC(=O)CCc1ccccc1-c1nc(N2CC[C@@H]2C)nc2c1CCC2 [Example 2, methyl (S)-3-(2-(2-(2-methylazetidin-1-yl)-6,7-dihydro-5H-cyclopenta[d]pyrimidin-4-yl)phenyl)propanoate]
24 | 122 nM | 121 nM |  |  | COC(=O)Cc1cccc(-c2nc(N3CC[C@@H]3C)nc3c2CCC3)c1 [Example 3, methyl (S)-2-(3-(2-(2-methylazetidin-1-yl)-6,7-dihydro-5H-cyclopenta[d]pyrimidin-4-yl)phenyl)acetate]
25 | 7900 nM | 5920 nM |  |  | C[C@H]1CCN1c1nc2c(c(-c3ccccc3CCC(=O)O)n1)CCC2 [Example 5, (S)-3-(2-(2-(2-methylazetidin-1-yl)-6,7-dihydro-5H-cyclopenta[d]pyrimidin-4-yl)phenyl)propanoic acid]
26 | 243 nM | 285 nM |  |  | C[C@H]1CCN1c1nc2c(c(-c3cccc(CC(=O)O)c3)n1)CCC2 [Example 6, (S)-2-(3-(2-(2-methylazetidin-1-yl)-6,7-dihydro-5H-cyclopenta[d]pyrimidin-4-yl)phenyl)acetic acid]
27 | 373 nM | 439 nM |  |  | C[C@H]1CCN1c1nc2c(c(-c3cccc(C#N)c3)n1)CCC2 [Example 7, (S)-3-(2-(2-methylazetidin-1-yl)-6,7-dihydro-5H-cyclopenta[d]pyrimidin-4-yl)benzonitrile]
28 | 1140 nM | 1150 nM |  |  | C[C@H]1CCN1c1nc2c(c(-c3ccccc3)n1)CCOC2 [Example 10, (S)-2-(2-methylazetidin-1-yl)-4-phenyl-5,8-dihydro-6H-pyrano[3,4-d]pyrimidine]
29 | 408 nM | 453 nM |  |  | C[C@H]1CCN1c1nc(-c2ccccc2)c2c(cnn2C)n1 [Example 11, (S)-1-methyl-5-(2-methylazetidin-1-yl)-7-phenyl-1H-pyrazolo[4,3-d]pyrimidine]
30 | 2600 nM | 2620 nM |  |  | C[C@H]1CCN1c1nc(-c2ccccc2)c2occc2n1 [Example 12, (S)-2-(2-methylazetidin-1-yl)-4-phenylfuro[3,2-d]pyrimidine]
31 | 420 nM | 615 nM |  |  | C[C@H]1CCN1c1nc2c(c(-c3ccn(CCC(=O)O)n3)n1)CCC2 [Example 24, (S)-3-(3-(2-(2-methylazetidin-1-yl)-6,7-dihydro-5H-cyclopenta[d]pyrimidin-4-yl)-1H-pyrazol-1-yl)propanoic acid]
32 | 104 nM | 142 nM |  |  | C[C@H]1CCN1c1nc2c(c(-c3cnn(CCC(=O)O)c3)n1)CCC2 [Example 25, (S)-3-(4-(2-(2-methylazetidin-1-yl)-6,7-dihydro-5H-cyclopenta[d]pyrimidin-4-yl)-1H-pyrazol-1-yl)propanoic acid]
33 | 1540 nM | 1860 nM |  |  | C[C@H]1CCN1c1nc(-c2ccccc2)c2ncsc2n1 [Example 26, (S)-5-(2-methylazetidin-1-yl)-7-phenylthiazolo[5,4-d]pyrimidine]
34 | > 50000 nM | > 50000 nM |  |  | C[C@H]1CCN1c1nc2c(c(-c3ccccc3)n1)CC(C1CC1)C2 (stereo partly drawn) [Example 30, 6-cyclopropyl-2-((S)-2-methylazetidin-1-yl)-4-phenyl-6,7-dihydro-5H-cyclopenta[d]pyrimidine]

Row | Compound | IC50 (human KHK-C; ADP-Glo) | IC50 (human KHK-A; ADP-Glo) | IC50 (human KHK-C) | IC50 (human KHK-A)
35 | 2-[(2S)-2-methylazetidin-1-yl]-4-(3-methylimidazol-4-yl)-6,7-dihydro-5H-cyclopenta[d]pyrimidine [Example 341] | 111 nM | 133 nM |  | 
36 | 3-(24(2S,3R)-3-fluoro-2-methylazetidin-1-yl)-6,8-dihydro-5H-pyrano[3,4-d]pyrimidin-4-yl)benzenesulfonamide [Example 287] | 1270 nM | 696 nM |  | 
37 | NC1(c2ccc(-c3nc(N4CC[C@H]4C(F)F)nc4c3CCC4(F)F)cc2)COC1 (single isomer, unassigned) [Example 688] |  |  | 59.6 nM | 96.5 nM
